For the assay, the system named is Pyrenophora teres. Briefly: Pyrenophora teres test (barley)/protective. The assay is classed as in vivo. The conditions noted are these: protective, application rate 250 g/ha, evaluation 7 days after inoculation. The method, then: To produce a suitable preparation of active compound, 1 part by weight of active compound is mixed with the stated amount of solvent and emulsifier, and the concentrate is diluted with water to the desired concentration.
To test for protective activity, young plants are sprayed with the preparation of active compound at the stated application rate. After the spray coating has dried on, the plants are sprayed with a conidia suspension of Pyrenophora teres. The plants remain in an incubation cabin at 20° C. and 100% relative atmospheric humidity for 48 hours.
The plants are then placed in a greenhouse at a temperature of about 20° C. and a relative atmospheric humidity of about 80%.
Evaluation is carried out 7 days after the inoculation. 0% means an efficacy which corresponds to that of the control, whereas an efficacy of 100% means that no infection is observed.

This note sets out measurements from patent US7538073B2, “Pyrazoylcarboxanilides as fungicides” (Bayer CropScience AG, priority 2001, dated 2009).

`CCCC(C)c1ccccc1NC(=O)c1c(C)nn(C)c1F` (stereo not shown) [drawing 95]: the Efficacy in % is 100%.
